From ChEMBL document CHEMBL1201862, “PubChem BioAssay data set” (2004)
The source made the active and inactive calls.

Tests used:
[1] = system: Vero; test: host cell cytotoxicity of antiviral hits, dose response, cytotoxicity control for West Nile virus antiviral project, secondary assay (AID 1650); type: functional; conditions: Chlorocebus sabaeus
[2] = inhibitors of intracellular T. cruzi replication, confirmation, NIH3T3 host cells, beta-gal luminescence (AID 2044); type: functional, cell-based;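 further: intracellular parasites grown in NIH/3T3 mouse fibroblasts as host cells; luminescent beta-galactosidase reporter signal from transgenic T. cruzi replicating inside host cells; inhibitors lower the luminescence signal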
[3] = cytotoxicity toward NIH3T3 fibroblasts, dose response, counter-screen, cell-based, ATP luminescence, mouse fibroblasts (AID 2010); type: functional;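 further: cells exposed to compound for about 90 hours before reading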
[4] = target: T1, Histone-lysine N-methyltransferase NSD2 (Homo sapiens, UniProt O96028); type: biochemical
T1 sequence (O96028 whole entry): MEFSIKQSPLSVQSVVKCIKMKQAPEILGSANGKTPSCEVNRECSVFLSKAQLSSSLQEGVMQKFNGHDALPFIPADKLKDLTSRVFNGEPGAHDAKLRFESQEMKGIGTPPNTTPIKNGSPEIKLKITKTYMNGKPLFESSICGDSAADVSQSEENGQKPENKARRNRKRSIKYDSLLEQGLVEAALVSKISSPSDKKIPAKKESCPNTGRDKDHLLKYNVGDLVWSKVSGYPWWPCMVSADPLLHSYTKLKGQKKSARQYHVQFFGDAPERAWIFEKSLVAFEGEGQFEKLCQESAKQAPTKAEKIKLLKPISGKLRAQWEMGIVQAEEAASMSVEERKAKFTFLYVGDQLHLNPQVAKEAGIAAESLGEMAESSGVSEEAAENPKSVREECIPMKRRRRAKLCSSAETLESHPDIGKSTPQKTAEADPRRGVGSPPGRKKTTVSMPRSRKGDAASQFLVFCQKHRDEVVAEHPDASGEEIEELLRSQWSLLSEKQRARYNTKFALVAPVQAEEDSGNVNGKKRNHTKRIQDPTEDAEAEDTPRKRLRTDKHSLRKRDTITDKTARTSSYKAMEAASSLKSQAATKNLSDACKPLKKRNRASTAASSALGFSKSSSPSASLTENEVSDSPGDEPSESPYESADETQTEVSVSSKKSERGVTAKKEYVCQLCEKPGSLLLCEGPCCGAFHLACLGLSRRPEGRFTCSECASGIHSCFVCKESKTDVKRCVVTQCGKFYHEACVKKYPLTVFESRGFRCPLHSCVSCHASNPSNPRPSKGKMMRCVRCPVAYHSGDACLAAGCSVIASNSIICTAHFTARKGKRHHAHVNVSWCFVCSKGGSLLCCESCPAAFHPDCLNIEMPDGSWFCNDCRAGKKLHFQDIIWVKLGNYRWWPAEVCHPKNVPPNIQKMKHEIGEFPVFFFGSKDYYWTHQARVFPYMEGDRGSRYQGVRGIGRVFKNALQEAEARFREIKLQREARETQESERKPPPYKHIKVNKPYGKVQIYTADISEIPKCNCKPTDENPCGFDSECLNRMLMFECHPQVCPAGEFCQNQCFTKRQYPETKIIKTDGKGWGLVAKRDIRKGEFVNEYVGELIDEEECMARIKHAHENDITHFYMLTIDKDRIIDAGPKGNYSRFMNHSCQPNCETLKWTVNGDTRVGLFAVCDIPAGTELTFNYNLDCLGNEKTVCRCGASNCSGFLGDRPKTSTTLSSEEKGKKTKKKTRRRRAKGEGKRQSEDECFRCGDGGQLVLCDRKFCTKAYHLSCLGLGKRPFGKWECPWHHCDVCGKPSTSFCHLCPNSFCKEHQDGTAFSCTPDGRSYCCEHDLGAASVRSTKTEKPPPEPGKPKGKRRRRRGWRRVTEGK

[5] = target: T2, RNA-binding protein pos-1 (Caenorhabditis elegans, UniProt G5EF15); test: inhibitors of POS-1/mex-3 RNA binding, dose response, biochemical, fluorescence polarization (AID 1964);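 further: purified POS-1 fused to maltose binding protein made in E. coli; potency of compounds blocking POS-1 binding to fluorescent RNA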
T2 sequence (G5EF15 whole entry): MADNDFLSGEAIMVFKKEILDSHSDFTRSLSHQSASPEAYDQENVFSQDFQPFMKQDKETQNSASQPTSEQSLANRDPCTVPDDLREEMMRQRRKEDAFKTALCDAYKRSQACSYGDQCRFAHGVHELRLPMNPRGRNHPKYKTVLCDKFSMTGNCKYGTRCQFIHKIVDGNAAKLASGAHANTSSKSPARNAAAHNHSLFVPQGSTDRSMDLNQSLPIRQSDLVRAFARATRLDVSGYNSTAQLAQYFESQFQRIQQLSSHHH

[6] = THP-1 cell cytotoxicity, dose response, cytotoxicity control for Vif-APOBEC3G degradation inhibitor project, THP-1 cells (AID 1117359); type: functional; conditions: Human immunodeficiency virus 1, THP-1
[7] = target: Glutathione-S-transferase (Schistosoma japonicum, UniProt Q26513); test: biotin-GST/anti-GST TR-FRET signal inhibitors, dose response, artefact control for Vif-APOBEC3G degradation inhibitor project, biochemical (AID 1117362); type: functional
[8] = target: T3, Polyadenylate-binding protein 1 (Homo sapiens, UniProt P11940); test: PABP1 MLLE–PAM2 binding inhibitor potency, dose response, biochemical, fluorescence polarization, FITC-PAM2 peptide (AID 602259); type: functional; conditions: read-out: IC50_Mean
[9] = target: T4, Zinc finger protein mex-5 (Caenorhabditis elegans, UniProt Q9XUB2); test: MEX-5/TCR-2 RNA interaction inhibitors, dose response, biochemical, C. elegans, fluorescence polarization (AID 1960)
T4 sequence (Q9XUB2 whole entry): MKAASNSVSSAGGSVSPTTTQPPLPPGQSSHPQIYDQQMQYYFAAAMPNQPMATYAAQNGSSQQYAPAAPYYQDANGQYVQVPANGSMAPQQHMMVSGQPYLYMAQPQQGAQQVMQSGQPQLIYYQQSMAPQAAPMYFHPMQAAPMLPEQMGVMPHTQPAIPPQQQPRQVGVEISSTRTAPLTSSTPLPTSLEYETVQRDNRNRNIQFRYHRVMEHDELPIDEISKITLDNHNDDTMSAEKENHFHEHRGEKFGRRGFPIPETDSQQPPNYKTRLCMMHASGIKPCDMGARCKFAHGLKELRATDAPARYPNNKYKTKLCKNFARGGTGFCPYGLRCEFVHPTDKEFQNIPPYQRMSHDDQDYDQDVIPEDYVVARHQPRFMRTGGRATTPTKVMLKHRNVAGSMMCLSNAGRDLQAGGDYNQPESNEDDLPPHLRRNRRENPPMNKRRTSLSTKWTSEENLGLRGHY

[10] = target: T3, Polyadenylate-binding protein 1; test: PABP1 MLLE–PAM2 interaction inhibitors, dose response, miRNA deadenylation inhibitor project, biochemical, fluorescence polarization, Cy5-PAM2 peptide, secondary (AID 602260); type: functional; conditions: read-out: IC50_Mean
[11] = target: Photoreceptor-specific nuclear receptor (Homo sapiens, UniProt Q9Y5X4); test: NR2E3 inverse agonists, dose response, biochemical, TR-FRET (AID 463256); type: functional
[12] = target: Peroxisome proliferator-activated receptor gamma/Nuclear receptor corepressor 2 (Homo sapiens, UniProt P37231+Q9Y618); test: Counterscreen for NR2E3 inverse agonists: TR-FRET-based biochemical high throughput dose response assay to identify inverse agonists of the interaction between peroxisome proliferator-activated receptor gamma (PPARg) and nuclear receptor co-repressor 2 (NCOR2).; type: functional
[13] = target: Voltage-gated inwardly rectifying potassium channel KCNH2 (Homo sapiens, UniProt Q12809); test: hERG protection from proarrhythmic block, potency, dose response, cell-based, thallium flux (AID 2121); type: ADME
[14] = target: T5, Dual specificity protein phosphatase 6 (Rattus norvegicus, UniProt Q64346); test: MKP-3 phosphatase inhibitors, primary screen, biochemical, rat enzyme, in vitro (AID 425)
T5 sequence (Q64346 whole entry): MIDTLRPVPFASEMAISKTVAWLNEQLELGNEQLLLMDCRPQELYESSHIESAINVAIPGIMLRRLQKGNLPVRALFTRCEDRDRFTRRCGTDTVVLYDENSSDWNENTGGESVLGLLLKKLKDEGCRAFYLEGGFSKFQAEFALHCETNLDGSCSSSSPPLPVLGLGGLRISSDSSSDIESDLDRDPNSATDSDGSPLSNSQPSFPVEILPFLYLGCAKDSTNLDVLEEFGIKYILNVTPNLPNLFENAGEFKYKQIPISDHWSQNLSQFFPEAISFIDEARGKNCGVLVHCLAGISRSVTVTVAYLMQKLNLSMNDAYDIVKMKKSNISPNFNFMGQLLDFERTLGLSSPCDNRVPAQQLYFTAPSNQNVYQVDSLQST

[15] = target: Mannose-6-phosphate isomerase (Homo sapiens, UniProt P34949); test: human PMI inhibitors, high substrate, primary screen, biochemical, fluorescence intensity, high mannose 6-phosphate (AID 1220)
[16] = M. tuberculosis H37Rv growth inhibitors, H37Rv strain (AID 1626); type: functional
[17] = target: T6, Corticotropin-releasing factor receptor 2/Corticotropin-releasing factor-binding protein (Homo sapiens, UniProt P24387+Q13324); test: activators of CRF receptor 2 with binding protein – uHTS hits, confirmation (AID 602473); type: functional; conditions: read-out: EC50_Mean
T6 sequence (Q13324 whole entry): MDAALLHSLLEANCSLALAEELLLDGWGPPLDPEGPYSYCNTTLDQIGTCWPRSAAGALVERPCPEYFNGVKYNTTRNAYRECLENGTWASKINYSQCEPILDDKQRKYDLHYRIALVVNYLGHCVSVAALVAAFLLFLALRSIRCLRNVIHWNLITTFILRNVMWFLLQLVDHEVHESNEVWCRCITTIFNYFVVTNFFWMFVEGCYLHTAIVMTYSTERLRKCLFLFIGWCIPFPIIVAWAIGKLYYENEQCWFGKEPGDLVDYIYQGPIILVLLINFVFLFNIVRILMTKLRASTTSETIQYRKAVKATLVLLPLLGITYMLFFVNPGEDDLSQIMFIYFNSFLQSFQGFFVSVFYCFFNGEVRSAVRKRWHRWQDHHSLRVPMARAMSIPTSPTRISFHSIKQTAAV
T6 sequence (P24387 whole entry): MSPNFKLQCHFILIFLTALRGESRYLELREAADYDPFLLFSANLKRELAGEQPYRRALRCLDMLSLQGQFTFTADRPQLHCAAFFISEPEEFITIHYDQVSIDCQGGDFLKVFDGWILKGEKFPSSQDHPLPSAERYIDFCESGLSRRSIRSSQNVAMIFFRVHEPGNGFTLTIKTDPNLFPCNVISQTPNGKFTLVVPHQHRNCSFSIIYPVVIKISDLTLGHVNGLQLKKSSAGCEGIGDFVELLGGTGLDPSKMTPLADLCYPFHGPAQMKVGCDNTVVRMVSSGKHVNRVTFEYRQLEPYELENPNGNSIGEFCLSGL

[18] = P. falciparum Dd2 growth inhibitors, dose response, SYBR Green, dry powder samples, set 9 (AID 1159568); type: functional, cell-based
[19] = P. falciparum ATP4 D1247Y mutant growth inhibitors, dose response, NITD609-resistant line, SYBR Green, dry powder (AID 1159571); type: functional, cell-based;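 further: parasites synchronized at ring stage by sorbitol before testing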
[20] = P. falciparum Dd2 growth inhibitors, dose response, SYBR Green, dry powder samples (AID 1159566); type: functional, cell-based;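 further: potency for growth inhibition with lower SYBR green DNA signal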
[21] = P. falciparum 3D7-ScDHODH growth inhibitors, dose response, SYBR Green, dry powder samples (AID 1159570); type: functional, cell-based;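 further: parasite growth measured after 72 hours of compound exposure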
[22] = P. falciparum Dd2 growth inhibitors, dose response, SYBR Green, cherry-picked samples (AID 1159567); type: functional, cell-based
[23] = Luminescence-based dose response cell-based high throughput screening assay for cytotoxic compounds using the IEC-6 intestinal epithelial cell line. [Related pubchem assays: 1858 (Summary AID.), 1825 (Counterscreen.), 1907 (Confirmation screen.)]; type: functional

T3 sequence (P11940 whole entry): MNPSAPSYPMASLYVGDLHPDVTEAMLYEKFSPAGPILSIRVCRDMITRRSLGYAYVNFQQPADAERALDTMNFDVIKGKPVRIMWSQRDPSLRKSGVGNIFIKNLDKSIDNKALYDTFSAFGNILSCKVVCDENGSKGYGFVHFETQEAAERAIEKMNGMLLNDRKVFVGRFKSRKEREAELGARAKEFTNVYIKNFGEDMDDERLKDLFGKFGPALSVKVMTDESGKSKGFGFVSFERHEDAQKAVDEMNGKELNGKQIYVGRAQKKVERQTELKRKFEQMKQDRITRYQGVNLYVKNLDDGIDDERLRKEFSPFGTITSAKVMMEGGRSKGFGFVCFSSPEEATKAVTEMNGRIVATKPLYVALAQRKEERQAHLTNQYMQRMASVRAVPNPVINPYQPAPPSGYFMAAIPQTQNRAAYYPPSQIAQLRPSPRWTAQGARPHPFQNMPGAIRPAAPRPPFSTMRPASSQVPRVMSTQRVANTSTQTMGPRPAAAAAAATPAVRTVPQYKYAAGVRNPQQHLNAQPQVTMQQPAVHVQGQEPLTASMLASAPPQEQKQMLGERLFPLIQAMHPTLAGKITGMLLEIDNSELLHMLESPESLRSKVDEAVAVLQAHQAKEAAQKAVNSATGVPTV
Sequence of Voltage-gated inwardly rectifying potassium channel KCNH2 (Q12809 whole entry): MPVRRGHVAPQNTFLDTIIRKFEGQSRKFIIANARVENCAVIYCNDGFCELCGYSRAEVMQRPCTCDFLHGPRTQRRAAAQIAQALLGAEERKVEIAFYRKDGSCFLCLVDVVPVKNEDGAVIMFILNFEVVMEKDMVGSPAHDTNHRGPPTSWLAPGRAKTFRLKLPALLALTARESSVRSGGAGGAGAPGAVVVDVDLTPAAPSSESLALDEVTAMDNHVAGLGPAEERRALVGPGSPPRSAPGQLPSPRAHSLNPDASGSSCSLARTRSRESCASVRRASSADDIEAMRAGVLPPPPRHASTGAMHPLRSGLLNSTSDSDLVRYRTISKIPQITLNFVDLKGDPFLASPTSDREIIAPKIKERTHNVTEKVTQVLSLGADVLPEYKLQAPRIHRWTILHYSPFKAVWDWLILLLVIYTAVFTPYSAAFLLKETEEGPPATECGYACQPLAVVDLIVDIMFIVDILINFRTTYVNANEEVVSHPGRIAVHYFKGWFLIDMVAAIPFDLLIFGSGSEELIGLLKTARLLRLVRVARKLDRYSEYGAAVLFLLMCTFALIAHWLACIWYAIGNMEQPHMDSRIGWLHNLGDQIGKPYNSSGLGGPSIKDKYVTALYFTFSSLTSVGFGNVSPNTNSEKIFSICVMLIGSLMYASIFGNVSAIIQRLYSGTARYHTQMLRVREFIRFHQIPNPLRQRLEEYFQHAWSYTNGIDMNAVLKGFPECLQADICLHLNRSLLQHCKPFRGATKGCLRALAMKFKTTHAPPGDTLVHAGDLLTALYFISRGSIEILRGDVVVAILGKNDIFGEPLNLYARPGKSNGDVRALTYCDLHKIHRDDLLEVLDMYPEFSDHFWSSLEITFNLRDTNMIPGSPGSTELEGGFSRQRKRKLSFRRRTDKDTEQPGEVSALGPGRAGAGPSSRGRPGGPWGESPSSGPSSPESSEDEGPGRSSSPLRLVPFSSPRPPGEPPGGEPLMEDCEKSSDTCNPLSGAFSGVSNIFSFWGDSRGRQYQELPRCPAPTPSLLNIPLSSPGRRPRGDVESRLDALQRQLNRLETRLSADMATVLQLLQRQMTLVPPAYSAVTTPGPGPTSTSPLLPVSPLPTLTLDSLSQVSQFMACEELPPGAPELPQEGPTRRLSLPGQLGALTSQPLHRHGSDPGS
Sequence of Glutathione-S-transferase (Q26513 whole entry): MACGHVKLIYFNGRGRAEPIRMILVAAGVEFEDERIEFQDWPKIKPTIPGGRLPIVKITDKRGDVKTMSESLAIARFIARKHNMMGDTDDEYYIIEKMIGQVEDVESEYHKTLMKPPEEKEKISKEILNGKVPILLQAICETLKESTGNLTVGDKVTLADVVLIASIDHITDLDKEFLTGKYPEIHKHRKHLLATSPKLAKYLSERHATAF
Sequence of Photoreceptor-specific nuclear receptor (Q9Y5X4 whole entry): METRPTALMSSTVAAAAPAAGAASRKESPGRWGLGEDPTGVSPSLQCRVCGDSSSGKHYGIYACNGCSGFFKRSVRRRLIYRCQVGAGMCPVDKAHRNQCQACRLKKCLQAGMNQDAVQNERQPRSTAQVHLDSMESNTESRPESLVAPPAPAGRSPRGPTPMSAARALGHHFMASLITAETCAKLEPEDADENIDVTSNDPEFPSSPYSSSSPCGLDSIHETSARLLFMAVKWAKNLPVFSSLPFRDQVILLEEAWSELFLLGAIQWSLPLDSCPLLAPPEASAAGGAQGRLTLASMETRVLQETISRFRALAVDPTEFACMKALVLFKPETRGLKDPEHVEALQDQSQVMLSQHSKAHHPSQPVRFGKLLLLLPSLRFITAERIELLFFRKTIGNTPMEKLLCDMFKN
Sequence of Mannose-6-phosphate isomerase (P34949 whole entry): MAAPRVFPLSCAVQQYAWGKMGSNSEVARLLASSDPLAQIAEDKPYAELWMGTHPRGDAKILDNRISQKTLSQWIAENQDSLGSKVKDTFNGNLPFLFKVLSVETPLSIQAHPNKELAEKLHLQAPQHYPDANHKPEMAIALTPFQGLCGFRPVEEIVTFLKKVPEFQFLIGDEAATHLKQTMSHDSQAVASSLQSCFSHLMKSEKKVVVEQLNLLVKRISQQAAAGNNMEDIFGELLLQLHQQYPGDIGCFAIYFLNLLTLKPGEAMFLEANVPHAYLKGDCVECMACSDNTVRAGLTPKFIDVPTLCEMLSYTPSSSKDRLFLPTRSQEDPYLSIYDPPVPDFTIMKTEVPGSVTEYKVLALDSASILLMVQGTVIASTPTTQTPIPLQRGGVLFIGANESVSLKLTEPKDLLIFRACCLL

## O=[N+]([O-])c1ccc(NC2CCN(Cc3ccccc3)CC2)c2ccncc12
[1]
  CC50: > 100 µM (active)
[2]
  EC50: 0.811 µM (active)
[3]
  EC50: > 60 µM (not active)

## CCn1c(C)cc(=S)c2ccccc21
[4]
  AC50: 17 µM (active)
[5]
  EC50: > 300 µM (not active)
[6]
  CC50: > 40 µM (active)
[7]
  IC50: > 100 µM (active)
[8]
  IC50: > 66 µM (inactive)
[9]
  EC50: > 300 µM (not active)
[10]
  IC50: > 66 µM (inactive)

## CC(=O)c1ccc(C(=O)Nc2sc3c(c2C(N)=O)CCN(Cc2ccccc2)C3)cc1
[5]
  EC50: > 300 µM (not active)
[11]
  IC50: 6 µM (active)
[12]
  IC50: 4.93 µM (active)
[9]
  EC50: > 300 µM (inconclusive)

## CCOc1ccccc1NC(=S)NC(=O)c1ccco1
[13]
  EC50: 1.25 µM (active)

## CCOc1ccc2nc(Nc3nc4c(c(=O)[nH]3)CCC4)nc(C)c2c1
[14]
  IC50: 36.8 µM (active)

## CNC(=O)c1ccc(NC(=O)CN2c3cccc4cccc(c34)S2(=O)=O)cc1
[13]
  EC50: 7.62 µM (active)

## COc1ccc(NC(=O)N2c3ccc(OC)cc3C(C)=CC2(C)C)cc1
[15]
  IC50: > 50 µM (not active)
[6]
  CC50: > 40 µM (active)
[7]
  IC50: > 100 µM (active)

## COc1ccc(NC(C#N)c2ccc(OC)cc2)cc1 (stereo not given)
[16]
  IC50: > 100 µM (active)

## Cc1ccc(C(OCC(O)CNC(C)c2ccccc2)c2ccccc2)cc1 (stereo not given)
[1]
  CC50: 18.9 µM (active)

## Clc1ccc(-c2ccc(/C=N/c3ccc(N4CCOCC4)cc3)o2)c(Cl)c1
[17]
  EC50: 6.68 µM (active)
[16]
  IC50: > 100 µM (active)

## N#C[C@@H]1[C@H](c2ccccc2)[C@H](CO)N1C(=O)Nc1cccc(F)c1
[18]
  AC50: 0.968 µM (active)

## C[C@@H]1CN([C@H](C)CO)C(=O)c2cc(NC(=O)Nc3ccc4c(c3)OCO4)ccc2O[C@@H](C)CCCCO[C@H]1CN(C)S(=O)(=O)c1ccccc1
[18]
  AC50: 2.22 µM (active)

## COc1cccc(C#Cc2ccc([C@H]3[C@@H](CO)N(C(=O)C4CCC4)[C@H]3C#N)cc2)c1
[19]
  AC50: 1.41 µM (active)
[20]
  AC50: 0.636 µM (active)
[21]
  AC50: 1.17 µM (active)
[22]
  AC50: 1.2 µM (active)

## COc1ccc2c3c(n(C)c2c1)[C@@H](CO)N(C(=O)c1ccc(F)cc1)CC31CN(C(=O)Nc2ccc(F)cc2)C1
[19]
  AC50: 0.999 µM (active)
[20]
  AC50: 1.22 µM (active)
[21]
  AC50: 1.26 µM (active)
[22]
  AC50: 1.79 µM (active)

## C=C1[C@@H](C)[C@H]2[C@H](Cc3ccccc3)NC(=O)[C@]23OC(=O)/C=C/[C@H](O)CCC[C@@H](C)C/C=C/[C@H]3[C@@H]1O [CYTOCHALASIN B]
[23]
  IC50: 0.424 µM (active)
